Earlier results as cited in patent US20090306103A1, “PYRIDONECARBOXAMIDE DERIVATIVES USEFUL IN TREATING HYPER-PROLIFERATIVE AND ANGIOGENESIS DISORDERS” (priority 2006, published 2009).

Key:
Bcr-Abl E255K mutant = conditions: read-out: IC50 against E255K mutant; biochemical assay
[1] = system: Bcr-Abl Imanitib resistant mutations
Bcr-Abl = conditions: greater potency than Imatinib

Cc1cn(-c2cc(NC(=O)c3ccc(C)c(Nc4nccc(-c5cccnc5)n4)c3)cc(C(F)(F)F)c2)cn1 [AMN-107]
IC50 (Bcr-Abl E255K mutant): 400 nM | inhibition of Imanitib resistant mutations [1]: inhib most Imanitib resistant mutations except for T315I | potency of Bcr-Abl kinase inhibition relative to Imatinib (Bcr-Abl): 20 fold
